# Test results: PMC12668289 (RSC Chemical Biology, 2025)
# Several values for one entry are separate records, joined by “and”; a condition that tells them apart may be missing. Identical values can stand only once. Like-named read-outs stand apart in the source and are kept apart here.
# Tests used:
# Fluc [1] = molecular target: T1, Fluc (Photinus pyralis, UniProt P08659); experiment: Steady-state kinetics of luciferase reactions (luminometer); type: biochemical; conditions: for appKm: pH 8.0, 25 °C; for Substrate inhibition: concentration range tested 0-300
# Experimental: (§1) 1.5 Bioluminescence characterizations
# (§2) Reactions of luciferases, including Photinus pyralis luciferase (Fluc), Phrixothrix hirtus luciferase (SLR), Pyrearinus termitilluminans […]
# (§3) mM D-LH 2 analogues, 3 mM ATP, 6 mM MgCl2, and 10 µM luciferase in 0.2 ml of 100 mM HEPES-NaOH pH 8.0. The bioluminescence (BL) emission characteristics were recorded using a microplate reader in a BL mode (Thermo Scientific, Varioskan, LUX multimode). […]
# BL of the
# (§4) The reactions were initiated by mixing 25 µl of premixed solution of luciferases/D-LH 2 analogues with 125 µl of 3 mM ATP and 6 mM MgCl2 in 100 mM HEPES-NaOH (pH 8.0). The light intensity (relative light unit, RLU) during 0-300 sec was then collected to represent the overall luciferase activity which was further used for calculating kinetic parameters from the Michaelis-Menten equation. […]
# Pmluc-N230S [2] = experiment: as above; type: biochemical, Pyrocoelia miyako; design: Substrate inhibition: unit not given here; conditions: for appKm: pH 8.0, 25 °C; for Relative kcat: relative to 2a compound
# Experimental: as §1, §2, §3
# BL of the
# as §4
# Pmluc-N230S [3] = experiment: Bioluminescence quantum yield measurement; type: biochemical, Pyrocoelia miyako
# Experimental: as §1, §2
# (§5) mM D-LH 2 analogues, 3 mM ATP, 6 mM MgCl2, and 10 µM luciferase in 0.2 ml of 100 mM HEPES-NaOH pH 8.0. […]
# (§6) A reference light source was used for calibrating a sphere spectrometer equipped with a cooled CCD detector.
# (§7) The absolute responsivity of each luciferase-luciferin reaction was calculated based on a linear standardization between total photon flux measured using the sphere spectrometer equipped with a cooled CCD detector and relative count values measured by a luminometer. Total photons emitted from the bioluminescence reaction of each luciferase-luciferin pair were measured using a calibrated luminometer. A reaction containing 0.5-5 nM of each luciferin, 3 mM ATP, 3 mM MgCl2 in 100 mM Tris-HCl (total volume of 200 µl) was placed into the luminometer and background signals were recorded. The reaction was then initiated by adding 20 µl of 0.5 […]
# (§8) mM purified luciferases into the reaction tube and the bioluminescence signals were monitored until it decayed to the background level.
# SLR [4] = experiment: Steady-state kinetics of luciferase reactions (luminometer); type: biochemical, Phrixothrix hirtus; conditions: for Substrate inhibition: concentration range tested 0-300; for appKm: pH 8.0, 25 °C; for Relative kcat: relative to 2a compound
# Experimental: as §1, §2, §3
# BL of the
# as §4
# Fluc (HepG2) = experiment: Sensitivity of live reporter cell detection (LOD of cell number); type: cell-based, human; conditions: 100 µM, 30 min
# Fluc [5] = molecular target: T1, Fluc; experiment: Stopped-flow luminometry, single turnover light formation and decay; type: biochemical
# Experimental: 1.5 Bioluminescence characterizations […]
# One syringe was filled with a solution of 50 µM Fluc, 3 mM ATP, and 6 mM
# in both syringes were mixed by a stopped-flow device and measured the light emission at 25 °C in triplicate. […]
# 2.8 Investigation of bioluminescence kinetics using stopped-flow luminometry
# reactions were investigated using a stopped-flow spectrophotometer (employing a light-off mode for detecting the luminescence). One
# Fluc-ApCPP complex = Fluc-ApCPP complex (Photinus pyralis, UniProt P08659); experiment: biochemical; type: binding; conditions: ITC; for N site / G (free energy of binding) / H (enthalpy of binding): Fluc-ApCCP; for Kd / G (free energy of binding) / H (enthalpy of binding): 25 °C; for Kd: preformed Fluc-ApCPP complex, read-out: Dissociation constant (Kd) Fluc-ApCPP: Luciferin
# Eluc = experiment: Steady-state kinetics of luciferase reactions (luminometer); type: biochemical, Pyrearinus termitilluminans; conditions: for Substrate inhibition: concentration range tested 0-300; for appKm: pH 8.0, 25 °C
# Experimental: as §1, §2, §3
# BL of the
# as §4
# Pmluc-WT [6] = experiment: BL emission spectra of luciferase-luciferin reactions; type: biochemical, Pyrocoelia miyako; conditions: 100 mM HEPES pH 8.0, 25 °C
# Experimental: as §1, §2, §3
# (§9) sphere-based multichannel spectrometer with a charge-coupled device (CCD) detector. […]
# Pmluc-WT [7] = experiment: Steady-state kinetics of luciferase reactions (luminometer); type: biochemical, Pyrocoelia miyako; conditions: for Substrate inhibition: concentration range tested 0-300; for appKm: pH 8.0, 25 °C; for Relative kcat: relative to 2a compound
# Experimental: as §1, §2, §3
# BL of the
# as §4
# Fluc [8] = molecular target: T1, Fluc; experiment: biochemical; type: binding; conditions: ITC; for G (free energy of binding) / H (enthalpy of binding): 25 °C; for Kd: Table S9
# SLR (HepG2) = experiment: Sensitivity of live reporter cell detection (LOD of cell number); type: cell-based, human
# SLR (HeLa) = experiment: as above; type: cell-based, human
# [9] = tested on: SLR-expressing HeLa cells; experiment: Real-time BL monitoring of live cells
# Experimental: plasmids and Lipofectamine 3000 were then combined and incubated for 30 minutes to allow formation of DNA and lipid complexes.
# The DNA-lipid complexes were added directly to each well of the empty plate. 1.5 × 10⁵ cells (HepG2 and HeLa cells) were then suspended
# in 150 µL of DMEM supplemented with 10% FBS were added directly into the transfection mixture in each well. The plate was gently
# agitated to ensure even distribution and incubated at 37°C in a humidified 5% CO₂ incubator. The reporter cells obtained at this stage
# were ready for further investigation of their bioluminescence with D-LH2 analogues.
# 2c), 10% FBS and 25 mM HEPES-NaOH (pH 7.0) was added and the BL signals were monitored with F0 (no filter) and F2 (red filter, >620
# nm long-pass filter) by a luminometer (ATTO, Kronos HT, WSL-1563) and while maintaining the cells with 5% CO2 at 37 °C.
# SLR [10] = experiment: BL emission spectra of luciferase-luciferin reactions; type: biochemical, Phrixothrix hirtus; conditions: 100 mM HEPES pH 8.0, 25 °C
# Experimental: as §1, §2, §3, §9
# Fluc (HeLa) = experiment: Sensitivity of live reporter cell detection (LOD of cell number); type: cell-based, human; conditions: for Limit of detection (LOD), cells: Fluc (HeLa)
# SLR [11] = experiment: Bioluminescence quantum yield measurement; type: biochemical, Phrixothrix hirtus
# Experimental: as §1, §2, §5, §6, §7, §8
# [12] = Absorption and fluorescence spectra of luciferins; type: physicochemical; conditions: 100 mM HEPES pH 8.0, 25 °C
# Experimental: 2.6 Spectra of firefly luciferins
# spectrophotometer (Agilent technologies, Cary 100 UV Vis, Cary Series UV-Vis Spectrophotometer).
# were recorded by a microplate reader (Thermo Scientific, Varioskan, LUX multimode) in fluorescence mode. The reactions of D-LH 2 […]
# Supplementary Table S5. […]
# [e] ND denotes “not detectable”. […]
# [13] = F2 (red filter, >620 nm long-pass)
# [14] = Fluc-expressing HeLa, F0 filter
# T1 sequence (P08659 whole entry): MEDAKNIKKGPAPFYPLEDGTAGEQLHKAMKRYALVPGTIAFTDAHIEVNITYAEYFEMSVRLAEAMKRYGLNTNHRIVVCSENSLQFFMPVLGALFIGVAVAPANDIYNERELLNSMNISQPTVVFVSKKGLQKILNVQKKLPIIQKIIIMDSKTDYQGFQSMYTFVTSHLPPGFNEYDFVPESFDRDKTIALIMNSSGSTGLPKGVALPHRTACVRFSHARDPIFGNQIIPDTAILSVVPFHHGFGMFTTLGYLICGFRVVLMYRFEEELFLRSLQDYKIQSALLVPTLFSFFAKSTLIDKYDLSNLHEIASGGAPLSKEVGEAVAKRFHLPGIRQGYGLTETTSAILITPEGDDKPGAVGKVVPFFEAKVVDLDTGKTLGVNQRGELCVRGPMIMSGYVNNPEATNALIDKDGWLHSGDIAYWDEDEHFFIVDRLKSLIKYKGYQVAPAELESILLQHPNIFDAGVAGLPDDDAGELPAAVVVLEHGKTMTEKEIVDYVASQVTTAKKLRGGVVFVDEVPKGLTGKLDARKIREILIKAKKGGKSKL
# Fluc-ApCPP complex, sequence (P08659 whole entry, one chain of several): as the sequence (P08659 whole entry) above
compound,measurement,setting,value
"O=C(O)[C@H]1CSC(c2nc3ccc(O)cc3s2)=N1 [Compound 2a, D-luciferin, reference compound]",appKm,Fluc [1],3.3 µM
same,appKm,Pmluc-N230S [2]; Pmluc-N230S,0.6 µM
same,Quantum yield,Pmluc-N230S [3],0.16 and 0.160 ± 0.018
same,Substrate inhibition,SLR [4],> 4 µM
same,appKm,SLR [4],0.5 µM
same,"Limit of detection (LOD), cells",Fluc (HepG2); F0 (no filter),601 cells
same,"Limit of detection (LOD), cells",Fluc (HepG2); [13],897 cells
same,Observed rate constant (kobs) Light decay Faster phase,Fluc [5],1.57 and 1.57 ± 0.02 s^−1
same,Observed rate constant (kobs) Light decay Slower phase,Fluc [5],0.29 and 0.29 ± 0.00 s^−1
same,Observed rate constant (kobs) Light formation,Fluc [5],6.64 and 6.64 ± 0.05 s^−1
same,N site,Fluc-ApCPP complex,0.32
same,Substrate inhibition,Eluc,> 1e+06 µM
same,appKm,Eluc,0.1 µM
same,Bioluminescence wavelength (BLλ),Pmluc-WT [6],554 nm
same,Substrate inhibition,Pmluc-WT [7],> 4 µM
same,appKm,Pmluc-WT [7],0.1 µM
same,N site,Fluc [8],1.00
same,"Limit of detection (LOD), cells",SLR (HepG2); F0 (no filter),802 cells
same,"Limit of detection (LOD), cells",SLR (HepG2); F2 (red filter),1071 cells
same,"Limit of detection (LOD), cells",SLR (HeLa); F0 (no filter),1352 cells
same,"Limit of detection (LOD), cells",SLR (HeLa); F2 (red filter),1268 cells
same,Time BL signals are prolonged before signal decreasing,[9],up to 10 h
same,Bioluminescence wavelength (BLλ),SLR [10],625 nm
same,"Limit of detection (LOD), cells",Fluc (HeLa); F0 (no filter),4661 cells
same,"Limit of detection (LOD), cells",Fluc (HeLa); F2 (red filter),997 cells
same,Quantum yield,SLR [11],0.16 and 0.160 ± 0.005
same,Absorption (λmax),[12],327 nm
same,Fluorescence (λem),[12],543 nm and 523–560 nm
"Cc1cc2nc(C3=N[C@@H](C(=O)O)CS3)sc2cc1O [Compound 2b, 5’-methyl-D-luciferin]",Substrate inhibition,Fluc [1],> 10.0 µM
same,appKm,Fluc [1],3.1 µM
same,"Relative kcat (BL intensity), fold of 2a","Pmluc-N230S [2]; Pmluc N230S, compared to 2a",5.2 fold
same,Substrate inhibition,"Pmluc-N230S [2]; Pmluc-N230S, concentration range tested 0-300",> 4.0
same,appKm,Pmluc-N230S [2]; Pmluc-N230S,1.8 µM
same,Relative kcat,Pmluc-N230S [2]; Pmluc-N230S,518.5
same,Quantum yield,Pmluc-N230S [3],0.17 and 0.170 ± 0.034
same,Substrate inhibition,SLR [4],> 14 µM
same,appKm,SLR [4],0.7 µM
same,Relative kcat,SLR [4],157.3
same,"Limit of detection (LOD), cells",Fluc (HepG2); [13],795 cells
same,Observed rate constant (kobs) Light decay Faster phase,"Fluc [5]; Fluc single turnover, 25 °C",1.55 s⁻¹ and 1.55 ± 0.15 s⁻¹
same,Observed rate constant (kobs) Light decay Slower phase,"Fluc [5]; Fluc single turnover, 25 °C",0.27 s⁻¹ and 0.27 ± 0.00 s⁻¹
same,Observed rate constant (kobs) Light formation,"Fluc [5]; Fluc single turnover, 25 °C",9.63 s⁻¹ and 9.63 ± 0.04 s⁻¹
same,Kd,Fluc-ApCPP complex,4 ± 0.02 µM
same,N site,Fluc-ApCPP complex,0.33
same,G (free energy of binding),Fluc-ApCPP complex,-7.60 kcal/mol
same,H (enthalpy of binding),Fluc-ApCPP complex,-4.60 kcal/mol
same,Substrate inhibition,Eluc,> 8 µM
same,appKm,Eluc,0.7 µM
same,Bioluminescence wavelength (BLλ),Pmluc-WT [6],608 nm
same,Substrate inhibition,Pmluc-WT [7],> 2 µM
same,appKm,Pmluc-WT [7],0.4 µM
same,Relative kcat,Pmluc-WT [7],110.0
same,N site,Fluc [8],0.70
same,G (free energy of binding),Fluc [8],-6.70 kcal/mol
same,H (enthalpy of binding),Fluc [8],-1.83 kcal/mol
same,Kd,Fluc [8],13.4 µM
same,"Limit of detection (LOD), cells",SLR (HepG2); F0 (no filter),643 cells
same,"Limit of detection (LOD), cells",SLR (HepG2); F2 (red filter),783 cells
same,"Limit of detection (LOD), cells",SLR (HeLa); F0 (no filter),973 cells
same,"Limit of detection (LOD), cells",SLR (HeLa); F2 (red filter),826 cells
same,Time BL signals are prolonged before signal decreasing,"[9]; SLR-expressing HeLa, 100 µM",up to 10 h
same,Bioluminescence wavelength (BLλ),SLR [10],626 nm
same,"Limit of detection (LOD), cells",Fluc (HeLa); F0 (no filter),1457 cells
same,"Limit of detection (LOD), cells",Fluc (HeLa); F2 (red filter),415 cells
same,Quantum yield,SLR [11],0.19 and 0.190 ± 0.005
same,Absorption (λmax),[12],323 nm
same,Fluorescence (λem),[12],523 nm and 523–560 nm
"Cc1cc2nc(C3=N[C@@H](C(=O)O)CS3)sc2c(C)c1O [Compound 2c, 5’,7’-di-methyl-D-luciferin]",Substrate inhibition,Fluc [1],> 12.5 µM
same,appKm,Fluc [1],2.5 µM
same,Relative kcat,Fluc [1]; relative to 2a compound,67.8
same,appKm,Pmluc-N230S [2]; Pmluc-N230S,2.6 µM
same,Relative kcat,Pmluc-N230S [2]; Pmluc-N230S,48.1
same,Quantum yield,Pmluc-N230S [3],0.15 and 0.150 ± 0.014
same,Substrate inhibition,SLR [4],> 2.1 µM
same,appKm,SLR [4],0.5 µM
same,Relative kcat,SLR [4],134.8
same,"Limit of detection (LOD), cells",Fluc (HepG2); F0 (no filter),713 cells
same,kobs of light decay (faster and slower phases) slower than those of 2a and 2b,Fluc [5]; Fluc,5–6 fold
same,Observed rate constant (kobs) Light decay Faster phase,"Fluc [5]; Fluc single turnover, 25 °C",0.27 s⁻¹ and 0.27 ± 0.00 s⁻¹
same,Observed rate constant (kobs) Light decay Slower phase,"Fluc [5]; Fluc single turnover, 25 °C",0.05 s⁻¹ and 0.05 ± 0.00 s⁻¹
same,Observed rate constant (kobs) Light formation,"Fluc [5]; Fluc single turnover, 25 °C",7.28 s⁻¹ and 7.28 ± 0.02 s⁻¹
same,Kd,Fluc-ApCPP complex,25.3 ± 1.1 µM
same,N site,Fluc-ApCPP complex,3.34
same,G (free energy of binding),Fluc-ApCPP complex,-6.01 kcal/mol
same,H (enthalpy of binding),Fluc-ApCPP complex,-4.85 kcal/mol
same,Substrate inhibition,Eluc,> 12.5 µM
same,appKm,Eluc,3.5 µM
same,Relative kcat,Eluc; relative to 2a compound,0.3
same,Bioluminescence wavelength (BLλ),Pmluc-WT [6],631 nm
same,Substrate inhibition,Pmluc-WT [7],> 8.3 µM
same,appKm,Pmluc-WT [7],1.8 µM
same,Relative kcat,Pmluc-WT [7],7.7
same,N site,Fluc [8],0.80
same,G (free energy of binding),Fluc [8],-6.08 kcal/mol
same,H (enthalpy of binding),Fluc [8],-3.20 kcal/mol
same,Kd,Fluc [8],35.1 µM
same,"Limit of detection (LOD), cells",SLR (HepG2); F0 (no filter),500 cells
same,"Limit of detection (LOD), cells",SLR (HepG2); F2 (red filter),613 cells
same,"Limit of detection (LOD), cells",SLR (HeLa); F0 (no filter),1437 cells
same,"Limit of detection (LOD), cells",SLR (HeLa); F2 (red filter),707 cells
same,Time BL signals are prolonged before signal decreasing,"[9]; SLR-expressing HeLa, 100 µM",up to 18 h
same,Bioluminescence wavelength (BLλ),SLR [10],634 nm
same,"Limit of detection (LOD), cells",Fluc (HeLa); F2 (red filter),350 cells
same,Sensitivity higher than that of 2a,Fluc (HeLa); [14],~13.0 fold
same,Sensitivity higher than that of 2b,Fluc (HeLa); [14],about 4.1 fold
same,Sensitivity higher than that of 2a,"Fluc (HeLa); Fluc-expressing HeLa, F2 filter",about 2.8 fold
same,Quantum yield,SLR [11],0.16 and 0.160 ± 0.003
same,Absorption (λmax),[12],334 nm
same,Fluorescence (λem),[12],560 nm and 523–560 nm
